Results published in patent US20210307376A1, “Compositions Comprising Nicotine and/or Nicotine Salts and Ultrasonic Aerosolisation of Compositions Comprising Nicotine and/or Nicotine Salts” (priority 2020, published 2021).

Legend:
[1] = cited from earlier work; for P (octanol:water partitioning coefficient): [solute in octanol]:[solute in aqueous buffer]; for P (octanol:water partitioning coefficient) / % Aqueous: phosphate buffer; for P (octanol:water partitioning coefficient) / logP / % Aqueous: pH 7.4; for logP: octanol : aqueous phosphate buffer; for % Nonpolar: share of solute in octanol phase
nicotinic receptors = conditions: inhaled; compared to other nicotine salts such as nicotine salicylate; cited from earlier work
[2] = P 0.69 versus P 0.00145
Excerpt: The partitioning coefficient can be used as a measure of lipid solubility.

Row | Compound | P (octanol:water partitioning coefficient) [1] | logP [1] | % Aqueous [1] [%] | % Nonpolar [1] [%] | increase in proportion of nicotine binding sites (nicotinic receptors) | increase of partitioning coefficient P in comparison to levulinic acid [2] [fold]
1 | CC(=O)CCC(=O)O [Levulinic Acid] | 0.00145 | −2.84 | 99.85 | 0.15 | – | –
2 | CN1CCCC1c1cccnc1 (centres unmarked) [Nicotine] | 2.82 | 0.45 | 26 | 74 | – | –
3 | Nicotine Levulinate | 0.69 | −0.16 | 59 | 41 | 20-50% | 500
